Consider 19 compounds from US8912338B2, “Pesticidal compositions” (Dow AgroSciences LLC, priority 2010, dated 2014).

Series [1] relates to Cotton Aphid (Aphis gossypii). The series is described as follows: Insecticidal test for cotton aphid in a foliar spray assay. In kind it is in vivo. The note with it: 72 h, 200 ppm foliar spray on squash or cotton seedlings, live aphids counted after three days, Abbott's corrected % control, read-out: APHIGO % Ctrl @ 200 ppm. The protocol: Squash or cotton seedlings with fully expanded cotyledon leaves were trimmed to one cotyledon per plant and infested with wingless adult and nymph stage cotton aphid (APHIGO) one day prior to chemical application. Each plant was examined before chemical application to ensure uniform infestation (ca. 30-70 aphids per plant). Compounds (2 mg) were dissolved in 2 mL of acetone/methanol (1:1) solvent, forming stock solutions of 1000 ppm. The stock solutions were diluted 5× with 0.025% Tween 20 in H2O to obtain a solution at 200 ppm. A hand-held Devilbiss aspirator type sprayer was used to apply the spray solutions until runoff to both sides of the squash cotyledon leaves. Four plants (4 replications) were used for each concentration of each compound. Reference plants (solvent check) were sprayed with the diluent only. Treated plants were held in a holding room for three days at approximately 25° C. and 40% RH before the number of live cotton aphids on each plant was recorded. Insecticidal activity data presented in Table 3 were generated by using Abbott's correction formula: Corrected%Control=100*(X−Y)/X • where X=No. of live aphids on solvent check plants • Y=No. of live aphids on treated plants

Series [2] deals with Sweetpotato Whitefly (Bemisia tabaci). The series is described as follows: Insecticidal test for sweetpotato whitefly in foliar spray assay. In kind it is in vivo. The note with it: 200 ppm foliar spray on cotton plants infested with eggs, live nymphs counted after 8-9 days, Abbott's corrected % control, read-out: BEMITA % Ctrl @ 200 ppm. On the procedure: Cotton plants were used as test substrate and were grown in 3-inch pots and pruned until only 1 small (3-5 cm) true leaf remained. The plants were then placed in a room with whitefly ([…]) adults and allowed to be infested with eggs. After a 2-3 day egg-laying period, plants were taken from the adult whitefly room and the adults were removed from the leaves using compressed air delivered through a hand-held Devilbiss sprayer (23 psi). Plants infested with eggs (100-300 eggs per plant) were placed in a controlled-environment room for 5-6 days at 82° F. and 50% RH until approximately 50% egg hatch. Four cotton plants (4 replicates) were used for each treatment. Compounds (2 mg) were dissolved in 1 mL of acetone solvent, forming stock solutions of 2000 ppm. The stock solutions were diluted 10× with 0.025% Tween 20 in H2O to obtain the test solution of 200 ppm. A hand-held Devilbiss sprayer was used for spraying a solution to both sides of cotton leaf until runoff. Reference plants (solvent check) were sprayed with the diluent only. Treated plants were held in a holding room for 8-9 days at approximately 82° F. and 50% RH prior to grading. Evaluation was conducted by counting the number of live nymphs per plant under a microscope. Insecticidal activity data presented in Table 3 were generated by using Abbott's correction formula: Corrected%Control=100*(X-Y)/X • where X=No. of live nymphs on solvent check plants • Y=No. of live nymphs on treated plants […]

Series [3] has as its system Green Peach Aphid (Myzus persicae). The series is described as follows: Insecticidal test for green peach aphid in foliar spray assay. In kind it is in vivo. The note with it: 72 h, 200 ppm foliar spray on cabbage seedlings, live aphids counted after three days, Abbott's corrected % control, read-out: MYZUPE % Ctrl @ 200 ppm. On the procedure: Certain molecules disclosed in this document were tested against MYZUPE using procedures described in the following example. In the reporting of the results, the “MYZUPE, APHIGO and BEMITA Rating Table” was used (See Table Section).
Cabbage seedlings grown in 3-inch pots, with 2-3 small (3-5 cm) true leaves, were used as test substrate. The seedlings were infested with 20-50 green peach aphids (wingless adult and nymph stage) one day prior to chemical application. Four pots with individual seedlings were used for each treatment. Compounds (2 mg) were dissolved in 2 mL of acetone/methanol (1:1) solvent, forming stock solutions of 1000 ppm. The stock solutions were diluted 5× with 0.025% Tween 20 in H2O to obtain the test solution at 200 ppm. A hand-held Devilbiss sprayer was used for spraying a solution to both sides of cabbage leaves until runoff. Reference plants (solvent check) were sprayed with the diluent only. Treated plants were held in a holding room for three days at approximately 25° C. and 40% relative humidity (RH) prior to grading. Evaluation was conducted by counting the number of live aphids per plant under a microscope. Insecticidal activity data presented in Table 3 were generated by using Abbott's correction formula: Corrected%Control=100*(X−Y)/X • where X=No. of live aphids on solvent check plants • Y=No. of live aphids on treated plants

In turn, `CCSCC(=O)N(C)c1nnc(-c2cccnc2)s1` [Compound 8] displayed a melting point of 87 to 92 °C. Besides, the inhibition at 200 ppm in series [1] fell in the range of 80 to 100%. For the same compound, the inhibition at 200 ppm in series [2] was below 0%. The inhibition at 200 ppm in series [3] lay in the range of 80 to 100%.

With `CCN(C(=O)CCSC)c1nnc(-c2cccnc2)s1` [Compound 9], the melting point lay within 116 to 120 °C. Also, the inhibition at 200 ppm in series [1] fell in the range of 80 to 100%. Moreover, the inhibition at 200 ppm in series [2] was in the range of 0 to 80%. Besides, in series [3], the inhibition at 200 ppm is 80 to 100%.

The compound `CN(C(=O)CCSCc1ccccc1)c1nnc(-c2cccnc2)s1` [Compound 11] displayed a melting point of 116 to 118 °C. In addition, in series [1], the inhibition at 200 ppm lay in the range of 0 to 80%. In series [2], the inhibition at 200 ppm was in the range of 0 to 80%. In addition, the inhibition at 200 ppm in series [3] lay within 0 to 80%.

Compound `CCOC(=O)CCC(=O)N(C)c1nnc(-c2cccnc2)s1` [Compound 12] returned a melting point of 137 to 139 °C. In addition, the inhibition at 200 ppm in series [1] lay in the range of 80 to 100%. In addition, the inhibition at 200 ppm in series [2] was 0 to 80%. Further, the inhibition at 200 ppm in series [3] is 0 to 80%.

`CN(C(=O)CC[S+](C)[O-])c1nnc(-c2cccnc2)s1` (stereo not shown) [Compound 18, N-methyl-3-(methylsulfinyl)-N-(5-(pyridin-3-yl)-1,3,4-thiadiazol-2-yl)propanamide] came in with a melting point of 138 to 140 °C. For the same compound, the inhibition at 200 ppm in series [1] lay within 80 to 100%. For the same compound, the inhibition at 200 ppm in series [2] lay in the range of 0 to 80%. In addition, the inhibition at 200 ppm in series [3] was 80 to 100%.

In turn, `COCCCC(=O)N(C)c1nnc(-c2cccnc2)s1` [Compound 19] registered a melting point of 92 to 95 °C. Moreover, the inhibition at 200 ppm in series [1] lay in the range of 80 to 100%. In addition, the inhibition at 200 ppm in series [2] was in the range of 0 to 80%. In addition, the inhibition at 200 ppm in series [3] was in the range of 0 to 80%.

As for `CN(C(=O)CCS(C)(=O)=O)c1nnc(-c2cccnc2)s1` [Compound 20, N-methyl-3-(methylsulfonyl)-N-(5-(pyridin-3-yl)-1,3,4-thiadiazol-2-yl)propanamide], the melting point lay in the range of 199 to 201 °C. For the same compound, the inhibition at 200 ppm in series [1] lay within 80 to 100%. Moreover, the inhibition at 200 ppm in series [2] lay within 0 to 80%. The inhibition at 200 ppm in series [3] is 80 to 100%.

`CSCC(C)(C)C(=O)N(C)c1nnc(-c2cccnc2)s1` [Compound 24, N-2,2-trimethyl-3-(methylthio)-N-(5-(pyridin-3-yl)-1,3,4-thiadiazol-2-yl)propanamide] returned a melting point of 89 to 91 °C. Moreover, the inhibition at 200 ppm in series [1] is 80 to 100%. In series [2], the inhibition at 200 ppm was 0 to 80%. Also, the inhibition at 200 ppm in series [3] lay within 80 to 100%.

As for `CSCC(=O)N(C)c1nnc(-c2cccnc2)s1` [Compound 29], the melting point lay within 135 to 139 °C. In addition, in series [1], the inhibition at 200 ppm was 80 to 100%. In addition, in series [2], the inhibition at 200 ppm lay in the range of 0 to 80%. In addition, the inhibition at 200 ppm in series [3] lay in the range of 80 to 100%.

Regarding `CN(C(=O)CCNC(=O)OC(C)(C)C)c1nnc(-c2cccnc2)s1` [Compound 38], the melting point lay within 41 to 48 °C. Besides, the inhibition at 200 ppm in series [1] was 80 to 100%. Moreover, the inhibition at 200 ppm in series [2] fell in the range of 0 to 80%. For the same compound, in series [3], the inhibition at 200 ppm was in the range of 80 to 100%.

The compound `CN(C(=O)C(C)(C)C/S(C)=N/C#N)c1nnc(-c2cccnc2)s1` (stereo not shown) [Compound 39, N-2,2-trimethyl-3-(methyl-N-cyano-sulfiliminyl)-N-(5-(pyridin-3-yl)-1,3,4-thiadiazol-2-yl)propanamide] registered a melting point of 42 to 52 °C. Besides, the inhibition at 200 ppm in series [1] is 80 to 100%. In addition, the inhibition at 200 ppm in series [2] is 0 to 80%. Moreover, in series [3], the inhibition at 200 ppm is 80 to 100%.

Regarding `CCS(=O)(=O)C(C)CC(=O)N(C)c1nnc(-c2cccnc2)s1` (stereo not shown) [Compound 43], the melting point was 175 to 177 °C. The inhibition at 200 ppm in series [1] is 80 to 100%. Further, in series [2], the inhibition at 200 ppm was below 0%. Also, the inhibition at 200 ppm in series [3] lay within 0 to 80%.

Compound `CSCC1(C(=O)N(C)c2nnc(-c3cccnc3)s2)CC1` [Compound 44] had a melting point of 144 to 147 °C. In addition, the inhibition at 200 ppm in series [1] was 80 to 100%. The inhibition at 200 ppm in series [2] is below 0%. Besides, the inhibition at 200 ppm in series [3] was in the range of 80 to 100%.

On to `CN(C(=O)C1(C[S+](C)[O-])CC1)c1nnc(-c2cccnc2)s1` (stereo not shown) [Compound 45], for which the melting point fell in the range of 166 to 168 °C. Also, the inhibition at 200 ppm in series [1] was in the range of 80 to 100%. Besides, the inhibition at 200 ppm in series [2] lay within 0 to 80%. The inhibition at 200 ppm in series [3] was 80 to 100%.

For `CO/N=C(\C)CCC(=O)N(C)c1nnc(-c2cccnc2)s1` [Compound 48, 4-[(E)-methoxyimino]-pentanoic acid methyl-(5-pyridin-3-yl-[1,3,4]thiadiazol-2-yl)-amide], the melting point fell in the range of 114 to 121 °C. Moreover, the inhibition at 200 ppm in series [1] was 80 to 100%. For the same compound, the inhibition at 200 ppm in series [2] fell in the range of 0 to 80%. In addition, the inhibition at 200 ppm in series [3] lay in the range of 80 to 100%.

`CC(=O)CCC(=O)N(C)c1nnc(-c2cccnc2)s1` [Compound 49, N-methyl-4-oxo-N-[5-(3-pyridyl)-1,3,4-thiadiazol-2-yl]pentanamide] returned a melting point of 146 to 147 °C. Further, the inhibition at 200 ppm in series [1] lay within 80 to 100%. Also, the inhibition at 200 ppm in series [2] is 0 to 80%. In series [3], the inhibition at 200 ppm was 0 to 80%.

The compound `CSCCOC(=O)N(C)c1nnc(-c2cccnc2)s1` [Compound 50, 2-(Methylthio)ethyl methyl(5-(pyridin-3-yl)-1,3,4-thiadiazol-2-yl)carbamate] came in with a melting point of 126 to 128 °C. The inhibition at 200 ppm in series [1] lay within 80 to 100%. Besides, the inhibition at 200 ppm in series [2] was in the range of 0 to 80%. Moreover, the inhibition at 200 ppm in series [3] is 80 to 100%.

The compound `CN(C(=O)OCC[S+](C)[O-])c1nnc(-c2cccnc2)s1` (stereo not shown) [Compound 51] showed a melting point of 170 to 172 °C. For the same compound, in series [1], the inhibition at 200 ppm was in the range of 80 to 100%. The inhibition at 200 ppm in series [2] lay within 0 to 80%. Besides, the inhibition at 200 ppm in series [3] fell in the range of 80 to 100%.

In turn, `COC(=O)CCC(=O)N(C)c1nnc(-c2cccnc2)s1` [Compound 56, methyl 4-(methyl-(5-(pyridin-3-yl)-1,3,4-thiadiazol-2-yl)amino)-4-oxobutanoate] showed a melting point of 152 to 154 °C. In addition, the inhibition at 200 ppm in series [1] lay in the range of 80 to 100%. For the same compound, the inhibition at 200 ppm in series [2] was below 0%. The inhibition at 200 ppm in series [3] is 0 to 80%.
